Converted amounts (≈) assume the structure as drawn.
Experiments:
P. falciparum D6 = experiment: Malaria SYBR Green Fluorescence Assay, D6 strain; type: cell-based, Plasmodium falciparum
P. falciparum W2 = experiment: Malaria SYBR Green Fluorescence Assay, W2 strain; type: cell-based, Plasmodium falciparum
P. falciparum C235 = experiment: Malaria SYBR Green Fluorescence Assay, C235 strain; type: cell-based, Plasmodium falciparum
P. berghei = experiment: Thompson Test, in vivo mouse malaria assay; set-up: species or system mice (ICR strain)
[1] = biological target: hERG potassium ion channel (Homo sapiens, UniProt Q12809); experiment: hERG patch clamp assay (% inhibition at 10 μM); conditions: for hERG (% inhibition): 10 μM
[2] = (160 × 3): 160 mg/kg for 3 days
[3] = % inhibition at 10 μM, patch clamp
[4] = Plasmodium falciparum, SYBR Green Assay

Chain of hERG potassium ion channel (Q12809 whole entry): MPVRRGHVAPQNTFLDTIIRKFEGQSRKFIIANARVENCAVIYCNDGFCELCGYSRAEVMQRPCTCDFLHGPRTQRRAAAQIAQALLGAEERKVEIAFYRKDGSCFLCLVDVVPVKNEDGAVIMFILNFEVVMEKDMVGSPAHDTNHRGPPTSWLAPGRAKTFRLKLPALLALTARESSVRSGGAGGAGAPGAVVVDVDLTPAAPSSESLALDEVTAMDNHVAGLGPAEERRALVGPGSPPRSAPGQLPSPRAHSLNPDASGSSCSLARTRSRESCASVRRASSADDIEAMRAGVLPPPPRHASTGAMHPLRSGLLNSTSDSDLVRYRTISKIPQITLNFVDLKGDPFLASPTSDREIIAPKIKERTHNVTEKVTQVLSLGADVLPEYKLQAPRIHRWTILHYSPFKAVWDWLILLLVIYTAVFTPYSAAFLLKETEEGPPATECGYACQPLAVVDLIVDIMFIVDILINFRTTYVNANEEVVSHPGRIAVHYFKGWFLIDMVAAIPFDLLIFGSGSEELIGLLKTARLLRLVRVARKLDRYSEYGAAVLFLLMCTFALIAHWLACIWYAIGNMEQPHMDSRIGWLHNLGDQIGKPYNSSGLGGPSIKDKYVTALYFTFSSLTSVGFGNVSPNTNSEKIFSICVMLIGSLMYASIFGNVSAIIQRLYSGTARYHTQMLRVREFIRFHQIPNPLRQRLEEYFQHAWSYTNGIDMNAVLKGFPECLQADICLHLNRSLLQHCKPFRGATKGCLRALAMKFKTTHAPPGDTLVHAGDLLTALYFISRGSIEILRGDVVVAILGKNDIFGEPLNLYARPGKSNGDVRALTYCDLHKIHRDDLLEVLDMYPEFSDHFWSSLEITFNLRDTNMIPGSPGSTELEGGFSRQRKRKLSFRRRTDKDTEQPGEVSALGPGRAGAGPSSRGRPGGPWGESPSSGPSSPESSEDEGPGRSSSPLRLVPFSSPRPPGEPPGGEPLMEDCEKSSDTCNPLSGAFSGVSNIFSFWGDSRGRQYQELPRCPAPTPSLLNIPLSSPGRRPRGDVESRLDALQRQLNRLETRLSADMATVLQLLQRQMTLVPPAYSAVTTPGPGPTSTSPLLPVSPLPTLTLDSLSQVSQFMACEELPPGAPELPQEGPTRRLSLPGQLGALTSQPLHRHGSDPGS

Row | Compound | D6 (P. falciparum D6; SYBR Green Assay) | W2 (P. falciparum W2; SYBR Green Assay) | C235 (P. falciparum C235; SYBR Green Assay) | In vivo Results Thompson Assay (n/N Cures or Suppressive) (P. berghei; (80 × 3): 80 mg/kg for 3 days) | In vivo Results Thompson Assay (n/N Cures or Suppressive) (P. berghei; [2]) | hERG [1, 3] | In vivo Results Thompson Assay (n/N Cures or Suppressive) (P. berghei; (40 × 3): 40 mg/kg for 3 days) | D6 (SYBR Green Assay IC50) (P. falciparum D6) | W2 (SYBR Green Assay IC50) (P. falciparum W2) | C235 (SYBR Green Assay IC50) (P. falciparum C235) | hERG (% inhibition) [1] | hERG ([1]; hERG activity as % inhibition) | IC50 (P. falciparum D6; [4]) | IC50 (P. falciparum W2; [4]) | IC50 (P. falciparum C235; [4])
1 | CC(C)(N)CNc1nc(-c2ccc(S(C)(=O)=O)cc2)nc(C(Cl)(Cl)Cl)n1 [Compound 97] | 26 ng/mL | 20 ng/mL | 33 ng/mL | (80 × 3) Suppressive; | (160 × 3) Suppressive | 35% | – | – | – | – | – | – | – | – | –
2 | CN1CCN(c2nc(-c3ccc(C(Cl)(Cl)Cl)cc3)nc(C(Cl)(Cl)Cl)n2)CC1 [Compound 99] | 59 ng/mL | 12 ng/mL | 21 ng/mL | (80 × 3) Suppressive | – | 16% | – | – | – | – | – | – | – | – | –
3 | Cc1ccc(-c2nc(N3CCCNCC3)nc(C(Cl)(Cl)Cl)n2)cc1 [Compound 102] | 58 ng/mL | 44 ng/mL | 48 ng/mL | (80 × 3) Suppressive | – | 47% | – | – | – | – | – | – | – | – | –
4 | FC(F)(F)c1cccc(-c2nc(N3CCCNCC3)nc(C(Cl)(Cl)Cl)n2)c1 [Compound 108] | 70 ng/mL | 47 ng/mL | 82 ng/mL | (80 × 3) Suppressive | – | 28% | – | – | – | – | – | – | – | – | –
5 | CN1CCCN(c2nc(-c3ccc(Cl)c(Cl)c3)nc(C(Cl)(Cl)Cl)n2)CC1 [Compound 113] | 33 ng/mL | 23 ng/mL | 35 ng/mL | Suppressive | 4/5 | 64% | – | – | – | – | – | – | – | – | –
6 | OCCN1CCN(c2nc(-c3ccc(C(Cl)(Cl)Cl)cc3)nc(C(Cl)(Cl)Cl)n2)CC1 [Compound 119] | 29 ng/mL | 12 ng/mL | 46 ng/mL | 4/5 | – | 18% | 1/5 | – | – | – | – | – | – | – | –
7 | COc1cccc(-c2nc(NC3CCN(C)CC3)nc(C(Cl)(Cl)Cl)n2)c1 [Compound 193] | 29 ng/mL | 22 ng/mL | 17 ng/mL | (80 × 3) Suppressive | – | 93% | – | – | – | – | – | – | – | – | –
8 | CC(C)(N)CNc1nc(-c2cc(Cl)cc(Cl)c2)nc(C(Cl)(Cl)Cl)n1 [Compound 195] | 6 ng/mL | 6 ng/mL | 3 ng/mL | 5/5 | Cures; (160 × 3) 5/5 Cures | 3% | 2/5 | – | – | – | – | – | – | – | –
9 | CC(C)(N)CNc1nc(-c2cccc(C(F)(F)F)c2)nc(C(Cl)(Cl)Cl)n1 [Compound 214] | 19 ng/mL | 11 ng/mL | 10 ng/mL | 5/5 | – | 42% | 2/5 | – | – | – | – | – | – | – | –
10 | ClC(Cl)(Cl)c1nc(-c2ccc3ccccc3c2)nc(N2CCCNCC2)n1 [Compound 227] | 29 ng/mL | 10 ng/mL | 12 ng/mL | (80 × 3) 2/5 Cures | – | 18% | – | – | – | – | – | – | – | – | –
11 | CC(C)(N)CNc1nc(-c2ccccc2)nc(C(Cl)(Cl)Cl)n1 [Compound 312] | 8 ng/mL | 3 ng/mL | 18 ng/mL | (80 × 3) 3/3 Cures;(40 × 3) | – | 65% | Suppressive | – | – | – | – | – | – | – | –
12 | CC(C)(C)c1ccc(-c2nc(NCC3(N)CCOCC3)nc(C(Cl)(Cl)Cl)n2)cc1 [Compound 314] | 7 ng/mL | 2 ng/mL | 16 ng/mL | (80 × 3) Suppressive | – | 5% | – | – | – | – | – | – | – | – | –
13 | COc1ccc(-c2nc(NC3CC(C)(C)NC(C)(C)C3)nc(C(Cl)(Cl)Cl)n2)cc1OC [Compound 328] | 64 ng/mL | 40 ng/mL | 84 ng/mL | (80 × 3) 2/5 Cures | – | 31% | – | – | – | – | – | – | – | – | –
14 | CCC(N)(CC)CNc1nc(-c2ccc(S(C)(=O)=O)cc2)nc(C(Cl)(Cl)Cl)n1 [Compound 365] | – | – | – | (80 × 3) Suppressive | – | – | – | 0.005 µg/mL | 0.005 µg/mL | 0.01 µg/mL | 69% | – | – | – | –
15 | CS(=O)(=O)c1ccc(-c2nc(N3CC4CC3CN4)nc(C(Cl)(Cl)Cl)n2)cc1 (centres unmarked) [Compound 724, CS(═O)(═O)c1ccc(cc1)c2nc(nc(n2)C(Cl)(Cl)Cl)N3CC4CC3CN4] | 106 ng/mL | 71 ng/mL | 110 ng/mL | (80 × 3) Suppressive | – | – | – | – | – | – | – | 70% | – | – | –
16 | FC(F)(F)c1cccc(-c2nc(N3CC4CC3CN4)nc(C(Cl)(Cl)Cl)n2)c1 (centres unmarked) [Ex. 7, 2-(4-(trichloromethyl)-6-(3-(trifluoromethyl)phenyl)-1,3,5-triazin-2-yl)-2,5-diazabicyclo[2.2.1]heptane] | – | – | – | Suppressive | 4/5 | – | – | – | – | – | – | 29% | 0.106 µg/mL (≈ 0.242 µM) | 0.126 µg/mL (≈ 0.287 µM) | 0.192 µg/mL (≈ 0.438 µM)
17 | CCN1CCC(CC1)C(C)Nc2nc(Nc3ccc(Cl)c(Cl)c3)nc(n2)C(Cl)(Cl)Cl [Compound 643] | – | – | – | (80 × 3) 2/5 Cures | – | – | – | 0.047 µg/mL | 0.033 µg/mL | 0.048 µg/mL | 100% | – | – | – | –
18 | CCN1CCCC(C1)Nc2nc(Nc3cc(Cl)cc(Cl)c3)nc(n2)C(Cl)(Cl)Cl [Compound 638] | – | – | – | (80 × 3) Suppressive | – | – | – | 0.005 µg/mL | 0.005 µg/mL | 0.005 µg/mL | 49% | – | – | – | –
19 | COC1═CC═CC(═C1)C1═NC(NCC2(N)CCCCC2)═NC(═N1)C(Cl)(Cl)Cl [Compound 661] | 3 ng/mL | 2 ng/mL | 8 ng/mL | (80 × 3) Suppressive | – | – | – | – | – | – | – | 32% | – | – | –
20 | Cc1ccc(cc1)c2nc(nc(n2)C(Cl)(Cl)Cl)N3CC4CC3CN4 [Compound 719] | 96 ng/mL | 68 ng/mL | 114 ng/mL | (80 × 3) Suppressive; (160 × 3) | Suppressive | – | – | – | – | – | – | 10% | – | – | –
21 | ClC(Cl)(Cl)c1ccc(cc1)c2nc(nc(n2)C(Cl)(Cl)Cl)N3CC4CC3CN4 [Compound 722] | 9 ng/mL | 5 ng/mL | 12 ng/mL | Suppressive | 5/5 | – | – | – | – | – | – | 14% | – | – | –
22 | ClC(Cl)(Cl)c1nc(NCCCN2CCCC2)nc(Nc3ccc(cc3)n4cccn4)n1 [Compound 728] | 77 ng/mL | 27 ng/mL | 79 ng/mL | (80 × 3) Suppressive | – | – | – | – | – | – | – | 116% | – | – | –
23 | FC(F)(F)OC1═CC═C(NC2═NC(═NC(═N2)N2CCCNCC2)C(Cl)(Cl)Cl)C═C1 [Compound 659] | 19 ng/mL | 18 ng/mL | 38 ng/mL | (80 × 3) 4/5 Cures | – | – | – | – | – | – | – | 58% | – | – | –
